Test results from patent US20140357512A1, “HISTONE DEACETYLASE (HDAC) BIOMARKERS IN MULTIPLE MYELOMA” (priority 2013, published 2014).

System: human myeloma cell line MM.1S
Assay: SILAC acetylated-lysine peptide profiling, HDAC inhibitor vs DMSO (light/heavy ratio)
Assay type: cell-based
Text: An embodiment of the invention comprises utilizing the SILAC method in order to quantitate changes in protein expression between two or more populations of cells. The SILAC method is a technique based on mass spectrometry that detects differences in protein abundance among samples using non-radioactive isotopic labeling. The SILAC method is known in the art, and described in detail in Ong et al., “Stable Isotope Labeling by Amino Acids in Cell Culture, SILAC, as a Simple and Accurate Approach to Expression Proteomics”, Molecular & Cellular Proteomics, vol. 1, pp. 376-386 (2002), which is incorporated herein by reference in its entirety.
Briefly, the SILAC method involves growing two populations of cells in cell culture. The first population of cells is grown in growth media containing normal amino acids (“normal media”). The second population of cells is grown in media lacking a standard essential amino acid (such as lysine), but is then supplemented with a non-radioactive, isotopically labeled form of that essential amino acid (such as lysine labeled with ^13C atoms, rather than normal ^12C atoms), which is called “heavy media”. When the two populations of cells are each growing in the medium, they incorporate the amino acids into all of their proteins. The growth of cells maintained in the heavy media is no different from that in normal media. All peptides containing the heavy amino acids are heavier than their normal counterparts. The cells from each of the two populations of cells are lysed. The lysates from each of the two cell populations are then combined. The combined cell lysates are then analyzed by mass spectrometry. Pairs of chemically identical peptides of different stable isotope composition can be differentiated in a mass spectrometer due to their difference in mass. The ratio of peak intensities in the mass spectrum for such peptide pairs reflects the abundance ratio for the two proteins.
This example describes SILAC studies that were performed to compare the effects of three different HDAC inhibitors (Compound A, Compound B, and tubastatin A) to a control on a human multiple myeloma cell line. The HDAC inhibitors were also compared amongst themselves to determine differences in their effects.
A human myeloma cell line MM.1S was grown using either ^12C (light) or ^13C (heavy) lysine containing culture medium. The “heavy” cells were treated with DMSO as the control, and the “light” cells were treated with a single HDAC inhibitor at 37° C. for 6 hours. The heavy and light cells were lysed, and the lysates were mixed in 1:1 ratio and digested with the protease trypsin. The acetylated lysine containing peptides (due to the action of the HDAC inhibitor) in the digested peptide pool were captured by a non-specific anti-acetylated lysine antibody cocktail (the antibodies identify both light and heavy acetylated peptides), and subjected to mass spectrometry analysis in order to identify thousands of individual peptides.
Thousands of peptides were identified in pairs (^12C and ^13C) due to their known mass differences. The amino acid sequence and quantitative ratio (Light/Heavy) of a given peptide in two differentially treated cell lysates were then determined and annotated with their possible protein (gene) sources.
As stated above, three HDAC inhibitors (Compound A, Compound B, and Tubastatin A) were used. Thus, the SILAC method was performed three times, with a different HDAC inhibitor compared to a control each time. Accordingly, there are three pairs of quantitative data in the table below, i.e., Compound A:DMSO, Compound B:DMSO, and Tubastatin A:DMSO. A cut-off of 1.30 fold of change (increase or decrease) was then used to determine “changed” or “+” in the table, and any peptides with a fold of change less than 1.3 fold were determined to be “unchanged” or “0” in the table. Those peptides that were not identified were marked as “NA” in the table. […]

Structure (SMILES): CN1CCc2c(c3ccccc3n2Cc2ccc(C(=O)NO)cc2)C1 [Tub A]
- light to heavy ratio (L/H ratio) of acetylated peptide YFDEK(ac)IAK (SEQ ID NO: 563) (D-beta-hydroxybutyrate dehydrogenase mitochondrial [280], gene BDH1, inhibitor:DMSO): 0.00 log 2
- light to heavy ratio (L/H ratio) of acetylated peptide, log 2 scale (DAAGSGDK(ac)PGADTGR (SEQ ID NO: 185), 39S ribosomal protein L53 mitochondrial [105], MRPL53): 0.38
- light to heavy ratio (L/H ratio) of acetylated peptide, log 2 scale (DAISGIGTDEK(ac)CLIEILASR (SEQ ID NO: 128), Annexin A6 [113], ANXA6): 0.67
- L/H ratio of acetylated peptide FK(ac)DPNCVGTVLASR (SEQ ID NO: 30) (DAZAP1 [59], log 2 scale, drug vs DMSO): −0.51
- light to heavy ratio (L/H ratio) of acetylated peptide, log 2 scale (DCDHADEQK(ac)CYSCGEFGHIQK (SEQ ID NO: 145), Isoform 1 of Cellular nucleic acid-binding protein [118], CNBP): −0.38
- L/H ratio of acetylated peptide APTIVGK(ac)SSLNPILFR (SEQ ID NO: 31) (DDOST [189], log 2 scale, drug vs DMSO): −0.51
- L/H ratio of acetylated peptide FGNPGEK(ac)LVK (SEQ ID NO: 34) (DDX5 [40], log 2 scale, drug vs DMSO): 0.45
- L/H ratio of acetylated peptide DWVLNEFK(ac)HGK (SEQ ID NO: 33) (DDX5 [388], log 2 scale, drug vs DMSO): −0.41
- L/H ratio of acetylated peptide FEK(ac)NFYVEHPEVAR (SEQ ID NO: 32) (DDX17 [132], log 2 scale, drug vs DMSO): −0.42
- light to heavy ratio (L/H ratio) of acetylated peptide, log 2 scale (DELGDYLK(ac)PK (SEQ ID NO: 184), 39S ribosomal protein L46 mitochondrial [265], MRPL46): −0.96
- L/H ratio of acetylated peptide (DHPLPEVAHVK(ac)HLSASQK (SEQ ID NO: 381), Cytochrome c oxidase subunit 4 isoform 1 mitochondrial [53], COX4I1): 0.00 log 2
- light to heavy ratio (L/H ratio) of acetylated peptide, log 2 scale (DK(ac)TQYIFNNMVLK (SEQ ID NO: 182), Alpha-mannosidase 2 [191], MAN2A1): −0.45
- L/H ratio of acetylated peptide ELNK(ac)ILEGR (SEQ ID NO: 2) (DLAT [466], log 2 scale, drug vs DMSO): 0.45
- light to heavy ratio (L/H ratio) of acetylated peptide, log 2 scale (DLEK(ac)WQNNLLPSR (SEQ ID NO: 211), 40S ribosomal protein 515a [88], RPS15A): −0.46
- light to heavy ratio (L/H ratio) of acetylated peptide, log 2 scale (DLMTDLK(ac)SEISGDLAR (SEQ ID NO: 129), Annexin A6 [418], ANXA6): 0.42
- L/H ratio of acetylated peptide VVK(ac)HPIFER (SEQ ID NO: 35) (DNAJB11 [247], log 2 scale, drug vs DMSO): −0.91
- light to heavy ratio (L/H ratio) of acetylated peptide, log 2 scale (DSGNK(ac)PPGLLPR (SEQ ID NO: 160), Isoform 1 of Glutathione S-transferase kappa 1 [54], GSTK1): 0.47
- light to heavy ratio (L/H ratio) of acetylated peptide, log 2 scale (DVK(ac)FGADAR (SEQ ID NO: 173), 60 kDa heat shock protein mitochondrial [31], HSPD1): −0.66
- L/H ratio of acetylated peptide SFDSEFK(ac)LACK (SEQ ID NO: 8) (DYNC1H1 [4283], log 2 scale, drug vs DMSO): 0.44
- light to heavy ratio (L/H ratio) of acetylated peptide LNLDK(ac)MMEQK (SEQ ID NO: 603) (Dihydrolipoyl dehydrogenase mitochondrial [122], gene DLD, inhibitor:DMSO): 0.00 log 2
- light to heavy ratio (L/H ratio) of acetylated peptide DTYIENEK(ac)LISGK (SEQ ID NO: 352) (Dolichyl-diphosphooligosaccharide--protein glycosyltransferase subunit 1 precursor [626], RPN1, drug:DMSO): 0.00 log 2
- light to heavy ratio (L/H ratio) of acetylated peptide YNIEK(ac)DIAAHIK (SEQ ID NO: 553) (Dynein light chain 1 cytoplasmic [36], gene DYNLL1, inhibitor:DMSO): 0.00 log 2
- light to heavy ratio (L/H ratio) of acetylated peptide YNIEK(ac)DIAAYIK (SEQ ID NO: 331) (Dynein light chain 2 cytoplasmic [36], DYNLL2, drug:DMSO): 0.00 log 2
- light to heavy ratio (L/H ratio) of acetylated peptide, log 2 scale (EAALEPSMEK(ac)IFK (SEQ ID NO: 157), cDNA FLJ59630 highly similar to Growth hormone-inducible transmembrane protein [76], GHITM): −0.68
- light to heavy ratio (L/H ratio) of acetylated peptide, log 2 scale (EDQK(ac)PVMDDQR (SEQ ID NO: 141), Isoform 1 of HLA class I histocompatibility antigen gamma chain [14], CD74): −0.79
- L/H ratio of acetylated peptide TSK(ac)NK(ac)SSLSR (SEQ ID NO: 14) (EP300 [1558:1560], log 2 scale, drug vs DMSO): 0.42
- light to heavy ratio (L/H ratio) of acetylated peptide, log 2 scale (EQEHMINWVEK(ac)HVVQSISTQQEK (SEQ ID NO: 132), ATP synthase subunit b mitochondrial [221], ATP5F1): 0.77
- light to heavy ratio (L/H ratio) of acetylated peptide, log 2 scale (EVHK(ac)QVVESAYEVIK (SEQ ID NO: 181), Isoform 1 of L-lactate dehydrogenase A chain [232], LDHA): −0.67
- light to heavy ratio (L/H ratio) of acetylated peptide, log 2 scale (EVQTNDLK(ac)EVVNK (SEQ ID NO: 223), 40S ribosomal protein S3a [182], SNORD73A, RPS3A): −0.60
- light to heavy ratio (L/H ratio) of acetylated peptide TFK(ac)GVVDVVMK (SEQ ID NO: 550) (Elongation factor G 2 mitochondrial precursor [265], gene GFM2, inhibitor:DMSO): 0.00 log 2
- light to heavy ratio (L/H ratio) of acetylated peptide KSDYIK(ac)LYVR (SEQ ID NO: 315) (Endoplasmin [410], HSP90B1, drug:DMSO): −0.70 log 2
- light to heavy ratio (L/H ratio) of acetylated peptide EK(ac)NLLHVTDTGVGMTR (SEQ ID NO: 314) (Endoplasmin[ 142], HSP90B1, drug:DMSO): −0.84 log 2
- light to heavy ratio (L/H ratio) of acetylated peptide EVEEDEYK(ac)AFYK (SEQ ID NO: 261) (Endoplasmin[ 356], HSP90B1, drug:DMSO): −0.89 log 2
- light to heavy ratio (L/H ratio) of acetylated peptide K(ac)EELTLEGIR (SEQ ID NO: 510) (Eukaryotic initiation factor 4A-I [238], gene EIF4A1, inhibitor:DMSO): 0.00 log 2
- light to heavy ratio (L/H ratio) of acetylated peptide SHLAK(ac)EGLYQYK (SEQ ID NO: 533) (Eukaryotic translation initiation factor 3 subunit A [68], gene EIF3A, inhibitor:DMSO): 0.00 log 2
- light to heavy ratio (L/H ratio) of acetylated peptide, log 2 scale (FEK(ac)EQQQLNWK (SEQ ID NO: 179), Isoform Long of Integrin beta-7 [763], ITGB7): −0.47
- light to heavy ratio (L/H ratio) of acetylated peptide, log 2 scale (FFTVK(ac)LPVALDPGAK (SEQ ID NO: 209), Dolichyl-diphosphooligosaccharide--protein glycosyltransferase subunit 1 precursor [155], RPN1): −0.39
- L/H ratio of acetylated peptide (FGIAAK(ac)YQLDPTASISAK (SEQ ID NO: 479), Isoform 2 of Voltage-dependent anion-selective channel protein 2 [224], VDAC2): 0.00 log 2
- light to heavy ratio (L/H ratio) of acetylated peptide, log 2 scale (FLNAENAQK(ac)FK (SEQ ID NO: 200), Ran-specific GTPase-activating protein [150], RANBP1): −0.68
- light to heavy ratio (L/H ratio) of acetylated peptide, log 2 scale (FLTK(ac)GDNNAVDDR (SEQ ID NO: 218), Putative signal peptidase complex catalytic subunit SEC11B [101], SEC11B): 0.82
- light to heavy ratio (L/H ratio) of acetylated peptide, log 2 scale (FNQK(ac)GEVYK (SEQ ID NO: 149), Lipoamide acyltransferase component of branched-chain alpha-keto acid dehydrogenase complex mitochondrial [435], DBT): 0.39
- light to heavy ratio (L/H ratio) of acetylated peptide, log 2 scale (FWNK(ac)FLENK (SEQ ID NO: 187), NADH dehydrogenase [ubiquinone] 1 beta subcomplex subunit 6 [49], NDUFB6): 0.54
- light to heavy ratio (L/H ratio) of acetylated peptide AVDLIQK(ac)HK (SEQ ID NO: 546) (Flap endonuclease 1 [252], gene FEN1, inhibitor:DMSO): 0.00 log 2
- L/H ratio of acetylated peptide TCEESSFCK(ac)R (SEQ ID NO: 36) (GANAB [48], log 2 scale, drug vs DMSO): −0.51
